Source: patent US6576455B1, “Structure-based designed herbicide resistant products” (priority 1995, dated 2003)

Tests used:
tobacco plants = assay: Germination tests of tobacco seeds in the presence of CL 299,263 (imazamox); format: in vivo, Nicotiana tabacum; details: 2.5 μM CL 299,263
Experimental: Tobacco plants transformed with rationally designed AHAS genes as described in Example 8 above were also tested for cross-resistance to another herbicide, CL 299,263 (also known as imazamox).

tobacco shoots = assay: Root formation of tobacco shoots on medium containing 0.25 μM imazethapyr; format: in vivo, Nicotiana tabacum cv. Wisconsin 38; details: 0.25 μM imazethapyr in medium
Experimental: FIG. 13 is a photograph showing the root development of tobacco plants transformed with the Arabidopsis AHAS gene containing either the Met124Ile or Arg199Glu mutation and a non-transformed control. Plants were grown for 18 days after transfer into medium containing 0.25 μM imazethapyr.
Leaf disc transformation of Nicotiana tabacum cv. Wisconsin 38 was performed as described by Horsch et al. (Science, 227: 1229-1231, 1985) with slight modifications. Leaf discs were cut from plants grown under sterile conditions and co-cultivated upsidedown in Murashige Skoog media (Sigma Chemical Co., St. Louis, Mo.) for 2-3 days at 25° C. in darkness with Agrobacterium tumefaciens strains containing plasmids pJK002, pJK003, or pJK004. The discs were blotted dry and transferred to regeneration Murashige Skoog medium with B5 vitamins containing 1 mg/L benzyladenine and 0.1 mg/l 1-Napthyl Acetic Acid, 100 mg/L kanamycin, and 500 mg/L cefotaxime (all obtained from Sigma).
Initially, transformants were selected by kanamycin resistance conferred by the nptII gene present in the transformation vector. Shoots derived from the leaf discs were excised and placed on fresh Murashige Skoog hormone free media containing cefotaxime and kanamycin.
Kanamycin-resistant tobacco shoots were transferred to medium containing a 0.25 μM imazethapyr. […]

Row | SMILES | effect on wild-type tobacco plants (tobacco plants) | root formation of non-transformed tobacco shoots (endogenous wild-type AHAS) (tobacco shoots)
1 | COCc1cnc(C2=NC(C)(C(C)C)C(=O)N2)c(C(=O)O)c1 (centres unmarked) [CL 299,263, imazamox] | severe stunting and bleaching | 
2 | CCc1cnc(C2=NC(C)(C(C)C)C(=O)N2)c(C(=O)O)c1 (centres unmarked) [imazethapyr] |  | not able to initiate root formation
